Here are results for 1 compound from patent US20120190752A1, “EXO-S-MECAMYLAMINE METHOD, USE, AND COMPOUND FOR TREATMENT” (Targacept Inc., priority 2009, published 2012).

The subject of the experiment is subjects with major depressive disorder (MDD) who were inadequate responders to citalopram. The experiment in a line: CGI-I / CGI-GI (Clinical Global Impression-Improvement), Phase 2b add-on trial. The experiment is classed as in vivo, human. The source says:
The Clinical Global Impression—Improvement scale (CGI-I) is a 7 point scale that requires the clinician to assess how much the patient's illness has improved or worsened relative to a baseline state at the beginning of the intervention. The Clinical Global Impression—Efficacy Index is a 4 point×4 point rating scale that assesses the therapeutic effect of the treatment. In more detail, a multi-center double-blind, randomized, placebo-controlled, parallel group, flexible dose titration study of TC-5214 as adjunctive therapy in subjects with major depressive disorder (MDD) who were inadequate responders to citalopram was conducted in centers in the US and India. The study consisted of a screening period, baseline/washout period, open-label phase, double-blind phase, and a follow-up visit. Subject participation in the study could continue for up to 16 weeks of treatment. Following a washout period of up to 28 days for other antidepressants, subjects with MDD and a MADRS total score >/=28 and a Clinical Global Impression-Severity (CGI-S) score >/=4 were enrolled on Day 1 into an open-label citalopram-only phase of the study. This phase lasted 8 weeks, with citalopram (CIT) dose increased from a once-daily dose of 20 mg (Day 1 through Week 4) to 40 mg (Week 4 through Week 8). A total of 579 subjects entered the open-label citalopram phase. At Week 8, subjects who tolerated 40 mg CIT, but whose MADRS score was reduced <50% from baseline and no lower than 17, and CGI-S≧4, were considered inadequate responders. These subjects (n=270) were randomized in a double-blind fashion to receive either placebo or TC-5214-23 as add-on therapy to continued CIT. The double-blind phase of the study also lasted 8 weeks (Week 8 to Week 16). Study drug, TC-5214-23 or placebo, was started at 2 mg daily (1 mg twice per day [BID] dosing), added on to continuing CIT (40 mg PO qd). After 2 weeks of treatment, the dose of TC-5214 could be increased to 4 mg (2 mg BID) or continued unchanged, with up-titration based upon good tolerability and inadequate therapeutic response. After a further 2 weeks, the dose of TC-5214 could be increased again to 8 mg (4 mg BID) if judged appropriate by the investigator, based upon good tolerability and inadequate therapeutic response. At any time during the double-blind phase of the study, placebo or TC-5214-23 could be reduced to the previous dose level following the emergence of unacceptable adverse events (AEs). […] At this follow-up, any signs or symptoms of relapse were evaluated. If a subject was prematurely discontinued from the study between Week 8 and Week 16 for any reason, the investigator was to make every effort to perform all evaluations as per protocol, assuming the subject had reached the end of the double-blind add-on treatment phase. These evaluations were to be made as soon as possible and within 2 weeks of discontinuation. […] There was no meaningful difference in results as a function of age, gender, site, or smoking status. With regard to efficacy endpoints, the following tables present efficacy used in the ITT (Intent-to-Treat) and PP (Per Protocol) populations unless otherwise specific. The primary inference was based upon Week 16 visit using the ITT population. Change from baseline was obtained by subtracting the baseline values from the individual on-treatment values. Change from Week 16 was obtained by subtracting the Week 16 values from the individual follow-up visit (Week 18/19) values. If either the baseline or Week 16 or on-treatment or follow-up value was missing, the change from baseline or Week 16 value was also set to missing. To account for missing data, the last observation carry forward (LOCF) method was used for the ITT and PP populations. Thus, the last available on-therapy observation for a subject, including the observation at premature discontinuation, was used to estimate subsequent missing data points. […]

Setting [1] is: ITT Population, Double Blind Week 16 LOCF.
Setting [2] is: ITT Population, Double Blind Week 18 LOCF (Follow-up).
The mark [3] stands for this setting: PP Population, Double Blind Week 16 LOCF.
The mark [4] stands for this setting: PP Population, Double Blind Week 18 LOCF (Follow-up).

Structures are written as SMILES.

On to `CNC1(C)C2CCC(C2)C1(C)C` (stereo in doubt) [TC-5214, (S)—N,2,3,3-tetramethylnorbornan-2-amine], for which the “CGI-I Adjusted Mean” value runs as follows: under setting [1], 1.91; under setting [2], 1.90; under setting [3], 1.84; under setting [4], 1.83. For the same compound, the “CGI-I Mean Difference between TC-5214 and Placebo” value was 0.79 under setting [1], 0.71 under setting [2], 0.78 under setting [3] and 0.71 under setting [4]. Besides, the “CGI-I score compared with placebo” value (ITT and PP populations, Week 16 and Week 18, result in words) is given as “statistically significant decreases (improvements)”. For the same compound, the “CGI-GI Difference vs Placebo + CIT” value (ITT, Week 16 LOCF) is −0.79. Besides, under “ITT, Week 16 LOCF, add-on to citalopram”, the “CGI-GI Adj. Mean” value is recorded as 1.91.
